Legend:
Ah receptor [1] = details: Carver et al., 1994 JBC 269:30109-30112; cited from earlier work
Ah receptor [2] = assay: Receptor capture assay employing ARNT-GST fusion protein, anti-GST plate, PCR and gel densitometry; assay type: biochemical, murine; details: B-naphthoflavone 10 μM; duplicate samples; 30 cycles PCR; DMSO control 363
Protocol: The receptor was activated in the presence of ARNT/GST binding partner and test sample. Sufficient ARNT/GST was added to displace the endogenous ARNT present in the Ah receptor preparation. In a tube, 98 μl Hepa1c1c7 (0.8 mg) extract was incubated with 1 μl GST-ARNT (50 ng) and 1 μl sample (e.g. BNF or vehicle alone) at 30° C. for 1 hour. Non-specific binding of the nucleic acid-tracer was reduced by preincubating the reaction mix with NaCl to 60 mM and 2 μg salmon sperm DNA for 15 min. at room temperature. Nucleic acid-tracer was added to 50 fmol and the reaction was incubated 20 min at room temperature. The complex was captured on a commercially available 96-well anti-GST plate (Perkin Elmer Life Sciences, Boston, Mass.). The anti-GST coated microtiter plate was washed once with Wallac Wash Buffer prior to addition of 50 μl receptor-DNA reaction. […]
Samples were analyzed by agarose gel electrophoresis with visualization of ethidium-bromide stained DNA bands under UV radiation Typically, 20 μl of each sample was analyzed in the 4% gels, yielding bright fluorescent bands from the positive controls. […] Negatives were scanned using an HPscanjet 2200c and DNA bands were quantified using ScionImage (Scion Corporation) software.
Duplicate samples were analyzed with the protocol described above with B-naphthoflavone (10 μM) or vehicle (DMSO) following 30 cycles PCR. […]

AhR [3] = biological target: T1, AhR (Rattus norvegicus, UniProt P41738); assay: Receptor capture assay, real-time PCR, AhR derived from rat; assay type: biochemical
T1 construct: The cytosol containing AhR heteromers was stored at; from tissue; host or cells: liver cytosol of Long-Evans rats
Protocol: A set of calibrators consisting of 5000, 2500, 1250, 626, 313, 156, and 78 parts per trillion (ppt or pg/ml) 2,3,7,8-tetrachlorodibenzo-p-dioxin (TCDD) was prepared in methanol. In addition to TCDD a set of calibrators for AhR agonist, beta-naphthoflavone (BNF) was prepared and analyzed in the assay. Separately, 25 ul of 1:50,000 dilution of 10 uM stock nucleic acid-tracer was added per 1 ml of rodent cytosol, which was the source of AhR, and was aliquoted into glass tubes. The standards were diluted 1:20 into 50-100 ul of rodent cytosol, and incubated for 1-2 hr at room temperature to 37° C. Following incubation, 40 to 100 ul of the reaction was transferred to each well of the antibody-coated Capture Strip and incubated on a shaking platform for 30 min to 1 hr at room temperature. The Capture Strips were washed 5 times with Wash Buffer B, and aspirated; optionally soaking wells for 30 sec-5 min with wash buffer during each cycle. Taqman® Universal PCR Master Mix, primers, and Taqman® probe (Applied Biosystems, Calif.) were added, and adhesive cover applied. PCR was performed and analyzed using an ABI PRISM® 7700, using default settings: 50° C., 2 min, 95° C. […] A threshold cycle (Ct) was determined for each reaction The Ct represents the PCR cycle at which an increase in reporter fluorescence above baseline signal can first be detected.

AhR [4] = assay: Receptor capture assay, real-time PCR, rodent cytosol as source of AhR; assay type: biochemical; details: TCDD 625 ppt

T1 sequence (P41738 10-853): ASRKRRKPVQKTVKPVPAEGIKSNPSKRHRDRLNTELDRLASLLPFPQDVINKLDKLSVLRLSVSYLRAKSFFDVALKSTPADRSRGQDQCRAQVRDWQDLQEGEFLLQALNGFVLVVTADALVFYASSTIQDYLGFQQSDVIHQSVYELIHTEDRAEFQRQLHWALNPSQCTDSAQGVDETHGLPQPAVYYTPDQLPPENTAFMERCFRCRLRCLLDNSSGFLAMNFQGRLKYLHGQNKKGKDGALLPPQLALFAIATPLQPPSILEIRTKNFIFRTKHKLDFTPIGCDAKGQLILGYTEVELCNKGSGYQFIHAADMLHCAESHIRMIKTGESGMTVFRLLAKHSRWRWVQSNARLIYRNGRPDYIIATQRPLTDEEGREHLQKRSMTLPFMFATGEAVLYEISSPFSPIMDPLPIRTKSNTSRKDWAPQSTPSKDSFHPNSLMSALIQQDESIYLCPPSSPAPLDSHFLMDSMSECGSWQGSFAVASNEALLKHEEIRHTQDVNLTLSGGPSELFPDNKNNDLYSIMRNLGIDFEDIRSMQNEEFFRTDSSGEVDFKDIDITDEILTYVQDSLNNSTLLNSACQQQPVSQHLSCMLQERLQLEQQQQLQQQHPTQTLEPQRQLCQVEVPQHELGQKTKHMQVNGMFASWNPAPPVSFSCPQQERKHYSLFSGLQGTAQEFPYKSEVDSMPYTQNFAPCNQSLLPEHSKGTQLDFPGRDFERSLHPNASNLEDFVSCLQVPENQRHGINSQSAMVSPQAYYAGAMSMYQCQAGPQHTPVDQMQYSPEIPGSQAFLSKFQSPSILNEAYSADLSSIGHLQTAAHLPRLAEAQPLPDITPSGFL
T1 sequence (P41739 whole entry partner): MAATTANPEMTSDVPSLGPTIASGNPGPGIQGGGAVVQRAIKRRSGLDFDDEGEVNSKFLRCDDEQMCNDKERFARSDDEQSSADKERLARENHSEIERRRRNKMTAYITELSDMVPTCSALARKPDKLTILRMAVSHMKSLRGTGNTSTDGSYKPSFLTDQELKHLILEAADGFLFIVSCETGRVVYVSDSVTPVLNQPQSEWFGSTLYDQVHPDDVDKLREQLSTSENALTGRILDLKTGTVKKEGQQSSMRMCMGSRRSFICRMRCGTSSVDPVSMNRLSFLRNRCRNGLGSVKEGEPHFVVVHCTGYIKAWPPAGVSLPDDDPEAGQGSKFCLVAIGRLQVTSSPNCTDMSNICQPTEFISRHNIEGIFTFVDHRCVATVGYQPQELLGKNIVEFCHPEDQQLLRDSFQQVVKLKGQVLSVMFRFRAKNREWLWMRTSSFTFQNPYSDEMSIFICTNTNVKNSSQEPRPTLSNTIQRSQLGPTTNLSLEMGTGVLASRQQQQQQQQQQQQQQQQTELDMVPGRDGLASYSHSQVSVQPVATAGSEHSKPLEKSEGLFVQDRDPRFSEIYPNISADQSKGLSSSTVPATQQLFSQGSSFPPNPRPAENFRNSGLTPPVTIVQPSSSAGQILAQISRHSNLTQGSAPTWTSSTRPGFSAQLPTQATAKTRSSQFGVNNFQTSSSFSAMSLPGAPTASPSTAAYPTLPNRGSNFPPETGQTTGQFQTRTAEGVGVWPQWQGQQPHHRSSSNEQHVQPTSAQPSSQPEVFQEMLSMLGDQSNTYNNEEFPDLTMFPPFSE

Which “affinity for the Ah receptor relative to TCDD” value (Ah receptor [1]) does the source give for `O=c1cc(-c2ccccc2)oc2ccc3ccccc3c12` [BNF, beta-naphthoflavone] here?
Its value is “approximately an order of magnitude less affinity for the Ah receptor than TCDD”.

And the “average value of quantified DNA bands” value (Ah receptor [2])?
The value was 3013.

With `Clc1cc2c(cc1Cl)Oc1cc(Cl)c(Cl)cc1O2` [TCDD, 2,3,7,8-tetrachlorodibenzo-p-dioxin] as the compound, how does the “slope of dose-response curve” value (AhR [3]) read?
The value was −1.208.

And the “EC50 of dose-response curve” value (AhR [3]; pg of TCDD in the assay)?
Its value is 2.8 pg.

And the “Ct Values” (AhR [4])?
Its value is 22.23.

Reference: patent US20040259096A1, “Receptor capture assay” (priority 2001, published 2004)
